# Assay results taken from ChEMBL document CHEMBL1201862, “PubChem BioAssay data set” (2004).
# Structures can show the parent of a compound that is named as a salt. Activity calls are given as the source filed them.
# Tests used:
# [1] = molecular target: NAD-dependent protein deacylase sirtuin-5, mitochondrial (Homo sapiens, UniProt Q9NXA8); assay: SIRT5 deacylase inhibitors, dose response, biochemical, fluorescence imaging, cherry-pick, set 6 (AID 720597)
# [2] = molecular target: Oxysterols receptor LXR-beta (Homo sapiens, UniProt P55055); assay type: functional, cell-based;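 also: Cell-based luminescence dose-response assay of agonist activity at LXR, run as a confirmatory counterscreen to a daf-12 agonist screen; HEK293 cells with Gal4-LXR fusion and GAL4-driven luciferase reporter; agonist potency from rising luciferase signal of a Gal4-LXR reporter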
# Chain of Oxysterols receptor LXR-beta (P55055 whole entry, the tested form may be a part): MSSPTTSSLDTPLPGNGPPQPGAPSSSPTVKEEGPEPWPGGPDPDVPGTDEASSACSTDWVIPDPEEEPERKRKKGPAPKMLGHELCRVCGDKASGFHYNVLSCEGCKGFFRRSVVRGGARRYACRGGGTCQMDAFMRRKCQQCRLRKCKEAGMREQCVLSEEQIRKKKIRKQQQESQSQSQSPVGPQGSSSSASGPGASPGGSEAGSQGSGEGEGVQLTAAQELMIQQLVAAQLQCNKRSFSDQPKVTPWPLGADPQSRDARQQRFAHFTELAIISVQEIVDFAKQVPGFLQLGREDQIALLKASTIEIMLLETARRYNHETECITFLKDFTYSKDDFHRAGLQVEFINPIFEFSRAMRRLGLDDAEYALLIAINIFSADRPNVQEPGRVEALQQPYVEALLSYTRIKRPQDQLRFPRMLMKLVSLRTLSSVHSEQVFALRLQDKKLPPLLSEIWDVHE
# cells [3] = assay: cells
# [4] = Single fluorophore orthopox expression reporter, late gene expression Measured in Cell-Based and Microorganism Combination System Using Plate Reader - 2142-08_Inhibitor_Dose_DryPowder_Activity.; assay type: functional
# [5] = A549 cell cytotoxicity, dose response, CellTiter-Glo luminescence, dry powder, set 17 (AID 1117284); assay type: functional, cell-based
# [6] = inhibitors of orthopox intermediate gene expression, dose response, cell-based, single fluorophore reporter, dry powder (AID 1117271); assay type: functional
# [7] = Orthopox viral replication plaque formation Measured in Cell-Based and Microorganism Combination System Using Imaging - 2142-05_Inhibitor_Dose_DryPowder_Activity.; assay type: functional
# [8] = HEK293 cell cytotoxicity, dose response, cytotoxicity control, luminescence, dry powder, set 12 (AID 743354); assay type: functional, cell-based
# [9] = HepG2 cell cytotoxicity, dose response, cytotoxicity control, luminescence, dry powder, set 9 (AID 743358); assay type: functional, cell-based
# [10] = P. falciparum 3D7-ScDHODH growth inhibitors, dose response, SYBR Green, dry powder samples (AID 1159570); assay type: functional, cell-based;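 also: parasite growth measured after 72 hours of compound exposure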
# [11] = HepG2 cell cytotoxicity, dose response, cytotoxicity control, plate reader, dry powder samples (AID 1159569); assay type: functional, cell-based;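 also: inhibitor potency with signal falling toward the positive control level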
# [12] = P. falciparum Dd2 growth inhibitors, dose response, SYBR Green, dry powder samples, set 9 (AID 1159568); assay type: functional, cell-based
# [13] = P. falciparum Dd2 growth inhibitors, dose response, SYBR Green, cherry-picked samples (AID 1159567); assay type: functional, cell-based
# [14] = P. falciparum Dd2 growth inhibitors, dose response, SYBR Green, dry powder samples (AID 1159566); assay type: functional, cell-based;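 also: potency for growth inhibition with lower SYBR green DNA signal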
# [15] = Plasmodium falciparum Dd2 Sybr green parasite growth Measured in Cell-Based and Microorganism Combination System Using Plate Reader - 2153-01_Inhibitor_Dose_DryPowder_Activity_Set3.; assay type: functional
# [16] = P. falciparum ATP4 D1247Y mutant growth inhibitors, dose response, NITD609-resistant line, SYBR Green, dry powder (AID 1159571); assay type: functional, cell-based;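 also: parasites synchronized at ring stage by sorbitol before testing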
# [17] = HeLa 2N DNA content increase, dose response, cell-based, IC50 (AID 1117349); assay type: functional
# [18] = HeLa 4N DNA content increase, dose response, cell-based, IC50 (AID 1117351); assay type: functional
# [19] = test system: Streptococcus sp. 'group A'; assay: growth inhibition of control SK(-) GAS strain, dose response, counter-screen for streptokinase expression inhibitor project, luminescence, kanamycin, BacTiterGlo, confirmation (AID 1900); assay type: functional, organism-based
# Streptococcus = assay: Group A Streptococcus viability loss, dose response, counter-screen for streptokinase expression inhibitor project, luminescence, BacTiterGlo (AID 1915); assay type: functional, organism-based; conditions: read-out: EC50;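 also: potency for reduction of bacterial viability or growth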
# [20] = half-maximal inhibitory concentration for glucagon-like peptide-1 release, STC-1 cell line, dose-response (AID 1117345); assay type: functional, cell-based
# [21] = Glucagon-like peptide 1 release potency, NCI-H716 cell line, dose-response, half-maximal inhibitory concentration (AID 1117344); assay type: functional, cell-based
# cells [22] = assay type: functional, cell-based
# [23] = molecular target: T1, Trace amine-associated receptor 1 (Homo sapiens, UniProt Q96RJ0); assay: Fluorescence-based cell-based high throughput dose response assay to identify agonists of the human trace amine associated receptor 1 (TAAR1).; assay type: functional
# T1 sequence (Q96RJ0 whole entry): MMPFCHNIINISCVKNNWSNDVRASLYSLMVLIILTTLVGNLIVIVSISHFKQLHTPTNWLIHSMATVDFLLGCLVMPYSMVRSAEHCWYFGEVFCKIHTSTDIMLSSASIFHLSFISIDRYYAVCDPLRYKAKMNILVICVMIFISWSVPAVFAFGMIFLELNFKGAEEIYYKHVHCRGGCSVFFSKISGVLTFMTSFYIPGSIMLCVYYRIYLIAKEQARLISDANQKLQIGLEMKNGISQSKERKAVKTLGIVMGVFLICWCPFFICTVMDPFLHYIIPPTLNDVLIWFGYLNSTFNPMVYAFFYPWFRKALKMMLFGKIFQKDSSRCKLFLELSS
# [24] = molecular target: T1, Trace amine-associated receptor 1; assay: Counterscreen for agonists of the human trace amine associated receptor 1 (hTAAR1): Fluorescence-based cell-based high throughput dose response assay to identify hTAAR1 agonist that also desensitize TAAR1 receptor response.; assay type: functional
# cells [25] = assay type: functional, cell-based; remark: listed apart in the source
# [26] = Dose-response inhibition of insulin secretion in a rat insulinoma line at 5 mM glucose (AID 1117331); assay type: functional, cell-based; conditions: INS-1E
# cells [27] = assay type: functional, cell-based; conditions: INS-1E
# Chain of NAD-dependent protein deacylase sirtuin-5, mitochondrial (Q9NXA8 whole entry, the tested form may be a part): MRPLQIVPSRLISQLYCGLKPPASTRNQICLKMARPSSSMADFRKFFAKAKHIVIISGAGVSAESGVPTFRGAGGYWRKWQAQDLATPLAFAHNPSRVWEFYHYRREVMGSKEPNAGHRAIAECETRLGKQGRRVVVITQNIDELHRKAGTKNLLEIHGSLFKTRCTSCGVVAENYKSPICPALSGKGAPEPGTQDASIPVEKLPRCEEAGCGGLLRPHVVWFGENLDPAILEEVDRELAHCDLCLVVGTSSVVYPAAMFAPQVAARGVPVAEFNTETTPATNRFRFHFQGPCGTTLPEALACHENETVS
compound,measurement,setting,value
COc1ccc(S(=O)(=O)Nc2ccc3c(c2)CC(=O)N([C@H](C)CO)C[C@@H](C)[C@@H](CN(C)Cc2ccc(C(F)(F)F)cc2)O3)cc1,AC50,[1],> 30 µM (inactive)
C/C(=N\Nc1ccccc1[N+](=O)[O-])c1ccccc1O,EC50,[2],> 67.6 µM (inactive)
same,EC50,cells [3],> 67.6 µM (inactive)
Cc1cccc(-c2ccc(CN(C)C[C@@H]3Oc4cc(C#C[C@@H](C)O)ccc4S(=O)(=O)N([C@@H](C)CO)C[C@@H]3C)cc2)c1,AC50,[4],1.48 µM (active)
same,AC50,[5],35.5 µM (active)
same,AC50,[6],1.85 µM (active)
same,AC50,[7],0.15 µM (active)
COC(=O)CCCCCCC(=O)N1CC[C@@H]2[C@@H](CO)N(C)c3ccc(-c4cccc(F)c4)cc3[C@@H]21,AC50,[8],46.1 µM (active)
same,AC50,[9],> 52 µM (inactive)
CCCN1C[C@H](C)[C@@H](OC)CN(C)C(=O)c2cc(NC(=O)Nc3cccc(F)c3)ccc2OC[C@H]1C,AC50,[10],15.2 µM (active)
same,AC50,[11],42.2 µM (active)
same,AC50,[12],1.61 µM (active)
same,AC50,[13],2.11 µM (active)
same,AC50,[14],0.469 µM (active)
same,AC50,[15],2 µM (active)
same,AC50,[16],2.47 µM (active)
CCCCCCNC(=O)n1cc(F)c(=O)[nH]c1=O [CARMOFUR],IC50,[17],> 10 µM (inactive)
same,IC50,[18],> 10 µM (inactive)
Clc1ccc(CO/N=C(\Cn2ccnc2)c2ccc(Cl)cc2Cl)c(Cl)c1 [OXICONAZOLE NITRATE],EC50,[19],1.92 µM (active)
same,EC50,Streptococcus,3.82 µM (active)
same,IC50,[20],> 40 µM (inactive)
same,IC50,[21],> 40 µM (inactive)
N[C@@H]1C[C@H]1c1ccccc1 [TRANYLCYPROMINE HYDROCHLORIDE],IC50,cells [22],> 29.9 µM (inactive)
same,EC50,[23],0.611 µM (active)
same,IC50,[24],2.1 µM (active)
same,EC50,cells [25],> 29.9 µM (inactive)
same,IC50,[26],> 33.3 µM (inactive)
same,IC50,cells [27],> 33.3 µM (inactive)
